Assay results published in patent US20160000787A1, “INHIBITORS OF CDK8/19 FOR USE IN TREATING ESTROGEN RECEPTOR POSITIVE BREAST CANCER” (SENEX BIOTECHNOLOGY, INC., priority 2013, published 2016).

How the values were obtained:
Type in all cases: cell-based
BT474 cells [1] = assay: Growth inhibition, 6-day treatment, Coulter counter; conditions: 6 days
Excerpt: (§1) Both MCF7-1pE and MCF7-Veh are resistant to tamoxifen and MCF7-Veh is also resistant to fulvestrant.

MCF7 cells [2] = assay: as above; conditions: 6 days
Excerpt: as §1

MCF7-1pE cells [3] = assay: as above; conditions: 6 days
Excerpt: as §1

MCF7-Veh cells [4] = assay: as above; conditions: 6 days
Excerpt: as §1

T47D cells [5] = assay: as above; conditions: 6 days
Excerpt: as §1

[6] = tested on: estrogen-depleted MCF7 cells; assay: Estrogen (E2) mitogenic stimulation assay, flow cytometric cell counting; conditions: for effect on E2-stimulated cell growth: 10 nM E2; for decrease of cell number: 4 days after E2 addition, fulvestrant 1 nM and/or Senexin A 1 μM
Method: To test the effect of CDK8/19 inhibition on the mitogenic effect of estrogen in estrogen-responsive BrCa cells, MCF7 cells (ER+BrCa line) were placed into estrogen-depleted phenol red-free media with 10% charcoal-stripped serum. Under these conditions cells are largely but not completely estrogen-depleted (full depletion would require adapting the cells to low serum, since the cells can synthesize estrogen from serum components). Cells were then plated in the presence or absence of Senexin A (at 1 μM and 5 μM concentrations), and either 10 nM of the estrogen 17-β-estradiol (E2) or vehicle control were added on the following day. Cell growth was measured by flow cytometric counting of live (PI-negative) and dead (PI-positive) cells over 4 days.
The interaction between Senexin A and fulvestrant in MCF7 cells was investigated in the estrogen (E2) mitogenic stimulation assay, carried out as described in example 1, with the cell number measured by flow cytometry 4 days after E2 addition.

BT474 cells [7] = assay: Time course of cell growth over 7 days, Coulter counter; conditions: different concentrations
Excerpt: (§2) Senexin A alone inhibited cell growth, with the strongest effects observed in the estrogen-dependent lines T47D and parental MCF7 and the weakest effects in cell lines that are fully or partially estrogen-independent (MCF7-Veh, MCF7-1p).

MCF7 cells [8] = assay: as above; conditions: different concentrations
Excerpt: as §2

T47D cells [9] = assay: as above; conditions: different concentrations
Excerpt: as §2

MCF7-1pE cells [10] = assay: Long-term (11-day) drug treatment, crystal violet staining
MCF7-Veh cells [11] = assay: as above
[12] = tested on: CXCL12 expression in estrogen-depleted MCF7 cells; assay: QPCR analysis of estrogen-inducible gene expression; conditions: two concentrations of Senexin A, with or without E2
Excerpt: (§3) Rae et al., (2005) used microarray profiling to analyze the effects of E2 and ER antagonists on gene expression in three ER+BrCa cell lines, MCF7, T47D and BT-474. […] The cytokine CXCL12 was also shown to mediate the mitogenic effect of E2 (Sauve et al., 2009) and, together with its receptor CXCR4, to be a key determinant of metastasis in cancers of the breast and other organs (Muller et al., 2001; Rhodes et al., 2011). […] The effect of Senexin A on CXCL12, a known mediator of metastasis, is of particular interest as a possible cause of the association of CDK8 expression with shorter RFS.

[13] = tested on: GREB1 expression in estrogen-depleted MCF7 cells; assay: as above; conditions: two concentrations of Senexin A, with or without E2
Excerpt: as §3

[14] = tested on: TFF1 expression in estrogen-depleted MCF7 cells; assay: as above; conditions: two concentrations of Senexin A, with or without E2
Excerpt: as §3

[15] = tested on: ER-dependent ERE-containing promoter in T47D-ER/Luc cells; assay: ER-dependent ERE promoter luciferase reporter assay; conditions: different concentrations; 10 nM E2 added 1 h later; read 18 hrs later
Method: To determine whether the effect of CDK8 on ER-inducible gene expression is mediated through inhibition of the transcriptional effect of ER, which is exerted through ER binding to the ERE promoter element, a T47D-based reporter cell line was used. The cell line T47D-ER/Luc (obtained from Signosis) expresses firefly luciferase from the ER-dependent ERE-containing promoter. The reporter cell line was estrogen-depleted, then Senexin A was added at different concentrations, and one hour later 10 nM E2 was added. 18 hrs later, cells were counted and luciferase activity was measured.

[16] = Homo sapiens, 144 h, FUL 1 nM, alone or with SenA 5 μM, read-out: % growth inhibition relative to control
[17] = Homo sapiens, 144 h, FUL 10 nM, alone or with SenA 5 μM, read-out: % growth inhibition relative to control
[18] = 144 h, FUL 1 nM, alone or with SenA 5 μM, read-out: % growth inhibition relative to control
[19] = 144 h, FUL 10 nM, alone or with SenA 5 μM, read-out: % growth inhibition relative to control
[20] = Homo sapiens, 144 h, TAM 1 μM, alone or with SenA 5 μM, read-out: % growth inhibition relative to control
[21] = Homo sapiens, 144 h, TAM 5 μM, alone or with SenA 5 μM, read-out: % growth inhibition relative to control
[22] = 144 h, TAM 1 μM, alone or with SenA 5 μM, read-out: % growth inhibition relative to control
[23] = 144 h, TAM 5 μM, alone or with SenA 5 μM, read-out: % growth inhibition relative to control

N#Cc1ccc2ncnc(NCCc3ccccc3)c2c1 [Senexin A]
% growth inhibition relative to control (BT474 cells [1]; SenA 5 μM): 23.9%
% growth inhibition relative to control (MCF7 cells [2]; SenA 5 μM): 37%
% growth inhibition relative to control (MCF7-1pE cells [3]; SenA 5 μM): 19.1%
% growth inhibition relative to control (MCF7-Veh cells [4]; SenA 5 μM): 15.5%
% growth inhibition relative to control (T47D cells [5]; SenA 5 μM): 48%
effect on E2-stimulated cell growth ([6]; 1 μM Senexin A, over 4 days): partial effect
effect on E2-stimulated cell growth ([6]; 5 μM Senexin A, over 4 days): abolished
effect on cell growth without E2 addition ([6]; 5 μM Senexin A, no E2, over 4 days): inhibited cell growth without E2 addition but to a lesser extent
decrease of cell number [6]: 5%
nature of effect / induction of cell death (PI-positive cells) ([6]; Senexin A 1 μM and 5 μM, over 4 days): cytostatic and were not associated with any significant induction of cell death
growth inhibition, time course (BT474 cells [7]): concentration-dependent growth inhibition
growth inhibition, time course (MCF7 cells [8]): concentration-dependent growth inhibition
growth inhibition, time course (T47D cells [9]): concentration-dependent growth inhibition
potentiation of fulvestrant effects (MCF7-1pE cells [10]): especially apparent
potentiation of fulvestrant effects (MCF7-Veh cells [11]): especially apparent
CXCL12 expression (QPCR) [12]: inhibited
GREB1 expression (QPCR) [13]: inhibited
TFF1 expression (QPCR) [14]: inhibited
transcription from ER-dependent promoter (luciferase activity) [15]: strongly inhibited

C[C@]12CC[C@@H]3c4ccc(O)cc4C[C@@H](CCCCCCCCC[S+]([O-])CCCC(F)(F)C(F)(F)F)[C@H]3[C@@H]1CC[C@@H]2O (stereo partly shown) [FUL, fulvestrant]
inhibition at 0.001 µM (BT474 cells [1]; Homo sapiens, BT-474, 144 h, FUL 1 nM, alone or with SenA 5 μM, read-out: % growth inhibition relative to control): 17.7%
inhibition at 0.01 µM (BT474 cells [1]; Homo sapiens, BT-474, 144 h, FUL 10 nM, alone or with SenA 5 μM, read-out: % growth inhibition relative to control): 22.6%
inhibition at 0.001 µM (MCF7 cells [2]; [16]): 62%
inhibition at 0.01 µM (MCF7 cells [2]; [17]): 63.6%
inhibition at 0.001 µM (MCF7-1pE cells [3]; [18]): 49.7%
inhibition at 0.01 µM (MCF7-1pE cells [3]; [19]): 57.2%
inhibition at 0.001 µM (MCF7-Veh cells [4]; [18]): 12.4%
inhibition at 0.01 µM (MCF7-Veh cells [4]; [19]): 28%
inhibition at 0.001 µM (T47D cells [5]; [16]): 56.5%
inhibition at 0.01 µM (T47D cells [5]; [17]): 58.2%
decrease of cell number [6]: 27%

CN1CCN(C(=O)c2ccc3cc(CCNc4ncnc5ccc(C#N)cc45)ccc3c2)CC1 [Senexin B]
growth inhibition, time course (BT474 cells [7]): concentration-dependent growth inhibition
growth inhibition, time course (MCF7 cells [8]): concentration-dependent growth inhibition
growth inhibition, time course (T47D cells [9]): concentration-dependent growth inhibition

CC/C(=C(\c1ccc(O)cc1)c1ccc(OCCN(C)C)cc1)c1ccccc1 [TAM, 4-OH tamoxifen]
inhibition at 1 µM (BT474 cells [1]; Homo sapiens, BT-474, 144 h, TAM 1 μM, alone or with SenA 5 μM, read-out: % growth inhibition relative to control): 28.8%
inhibition at 5 µM (BT474 cells [1]; Homo sapiens, BT-474, 144 h, TAM 5 μM, alone or with SenA 5 μM, read-out: % growth inhibition relative to control): 42.3%
inhibition at 1 µM (MCF7 cells [2]; [20]): 34.8%
inhibition at 5 µM (MCF7 cells [2]; [21]): 50.7%
inhibition at 1 µM (MCF7-1pE cells [3]; [22]): -1.3%
inhibition at 5 µM (MCF7-1pE cells [3]; [23]): 1.5%
inhibition at 1 µM (MCF7-Veh cells [4]; [22]): 2.6%
inhibition at 5 µM (MCF7-Veh cells [4]; [23]): 1%
inhibition at 1 µM (T47D cells [5]; [20]): 54.6%
inhibition at 5 µM (T47D cells [5]; [21]): 62.3%
